According to US20240041875A1 (priority 2022, published 2024):

How the values were obtained:
[1] = system: VSV-SARS-CoV-2; assay type: cell-based
[2] = system: SARS-CoV-2 WT strain; set-up: species or system K18-hACE2 mice; settings: mouse, in vivo
[3] = system: SARS-CoV-2; assay type: cell-based
[4] = system: A549-ACE2 cells; assay: Cytotoxicity to A549-ACE2 cells, CellTiter-Glo Assay; assay type: cell-based, human; settings: 0.1625 nM to 2.5 nM, 24 h
Method: FIG. 6. Ponatinib cytotoxicity to A549-ACE2 cells at the concentration range of 0.1625 nM to 2.5 nM). A549-ACE2 cells were treated with ponatinib for 24 h and the cell viability was detected by CellTiter-Glo Assay.

[5] = system: VSV-SARS-CoV-2; assay type: cell-based; remark: listed apart in the source

## Cc1ccc(C(=O)Nc2ccc(CN3CCN(C)CC3)c(C(F)(F)F)c2)cc1C#Cc1cnc2[nH]ncc2c1 [olverembatinib]
[1]
  inhibition of viral infection / plaque formation, side-by-side comparison: not olverembatinib treatment inhibited plaque formation

## Cc1ccc(C(=O)Nc2ccc(CN3CCN(C)CC3)c(C(F)(F)F)c2)cc1C#Cc1cnc2cccnn12 [ponatinib]
[2]
  body weight of infected mice: two of the five mice treated with ponatinib started to regain body weight on day 7
  expression of SARS-CoV-2 nucleocapsid protein (NP) in lung tissues (IHC): markedly lower
  survival of infected mice: lived significantly longer than the control group
  survival of infected mice at different doses: Dose-dependent effect
  viral RNA copies in the lung (quantitative real-time PCR): much lower than in the PBS group
  viral titer in the lung (plaque assay): significantly decreased the viral load in the lung
[3]
  reduction of viral infection by live SARS-CoV-2 (plaque assay): significantly reduced viral infection
[1]
  inhibition of VSV-SARS-CoV-2 infectivity: significantly inhibited VSV-SARS-CoV-2 in a dose-dependent manner
  inhibition of VSV-SARS-CoV-2 under four treatment conditions (concomitant, virus pre-incubated, cells pretreated, treatment after infection): could inhibit VSV-SARS-CoV-2 under all these conditions
  inhibition of viral infection / plaque formation, side-by-side comparison: inhibited plaque formation
[4]
  A549-ACE2 cell viability: no effect on A549-ACE2 cell viability
[5]
  screening outcome, inhibition of infection by VSV-SARS-CoV-2: several candidates including ponatinib
